Among the data in patent US8063065B2, “Azaindazole compounds as CCR1 receptor antagonists” (Boehringer Ingelheim International GmbH, priority 2008, dated 2011) are IC50 values, retold here.

Molecules are shown by their SMILES.

The assay concerns the target T1, CCR1 (Homo sapiens, UniProt P32246).
T1 sequence (P32246 1-355): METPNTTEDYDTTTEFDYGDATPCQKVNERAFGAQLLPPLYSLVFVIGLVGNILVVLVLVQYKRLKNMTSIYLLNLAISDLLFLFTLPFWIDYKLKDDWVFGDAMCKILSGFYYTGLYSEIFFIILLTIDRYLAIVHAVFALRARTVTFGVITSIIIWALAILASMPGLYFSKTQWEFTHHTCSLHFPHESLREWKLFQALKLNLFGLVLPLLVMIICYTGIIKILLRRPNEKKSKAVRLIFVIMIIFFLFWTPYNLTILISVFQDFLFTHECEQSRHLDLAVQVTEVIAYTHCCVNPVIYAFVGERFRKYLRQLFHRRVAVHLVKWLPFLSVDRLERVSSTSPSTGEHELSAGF
Kind of assay: Method A: calcium flux in CCR1 transfected cells (Fluo-4 NW, FLIPR TETRA), block of the CCR1/MIP-1α interaction. It is filed as cell-based. To be noted: Method A: Fluo-4 NW, MIP-1 alpha at EC80. The protocol:
Compounds are assessed for the ability to block the interaction of CCR1 and MIP-1α in a functional cellular assay measuring calcium flux in CCR1 transfected cells.
Method A: Non-adherent cells purchased from Chemicon Corporation (HTS005C), stably expressing recombinant CCR1 and G-alpha-16 are grown in RPMI 1640 medium (Mediatech 10-080-CM) supplemented with 10% heat-inactivated FBS, 0.4 mg/mL Geneticin and penicillin/streptomycin. On the day of the assay, the cells are transferred to a beaker and dye-loaded in bulk using a Fluo-4 NW Calcium Assay Kit with probenecid (Invitrogen F36205) at 0.8E6 cells/mL for 1 hour at room temperature. After 1 hour, they are seeded in a 384-well tissue culture-treated plate at a density of 20,000 cells/well. Appropriately diluted test compound is added to the well to achieve a top concentration of 3,000 nM (diluted 4-fold with 10 doses total). The final concentration of DMSO is 1%. The buffer is HBSS (Invitrogen 14025) with 20 mM HEPES at pH 7.4. The cells are allowed to incubate 1 hour in the dark at room temperature. The plates are transferred to the FLIPR TETRA where MIP-1 alpha in 1% BSA is added at the EC80 final concentration. Wells+/−MIP-1 alpha containing diluted DMSO instead of compound serve as the controls. Intracellular calcium flux is recorded on the FLIPR TETRA, using excitation at 470/495 nm and emission at 515/575 nm. Data are analyzed using Activity Base software.

The term IC50 denotes the concentration at which inhibition is half-maximal. `C[C@H](CO)NS(=O)(=O)c1ccc(CNC(=O)c2cncc3c2cnn3-c2ccc(F)cc2)cc1` [1-(4-Fluorophenyl)-1H-pyrazolo[3,4-c]pyridine-4-carboxylic acid 4-((R)-2-hydroxy-1-methyl-ethylsulfamoyl)-benzylamide]: the concentration for half-maximal inhibition (IC50) was 2 nM.
On to `CCC[C@H](NC(=O)c1cncc2c1cnn2-c1ccc(F)cc1)c1cncc(S(=O)(=O)CCC(=O)O)c1` [3-[5-((S)-1-{[1-(4-Fluorophenyl)-1H-pyrazolo[3,4-c]pyridine-4-carbonyl]-amino}-butyl)-pyridine-3-sulfonyl]-propionic acid], for which the IC50 is 17 nM.
In the case of `COc1cc(CNC(=O)c2cncc3c2cnn3-c2ccc(F)cc2)ccc1S(C)(=O)=O` [1-(4-Fluorophenyl)-1H-pyrazolo[3,4-c]pyridine-4-carboxylic acid 4-methanesulfonyl-3-methoxy-benzylamide], the IC50 was found to be 4 nM.
For `CC[C@H](NC(=O)c1cncc2c1cnn2-c1ccc(Cl)cc1)c1cncc(Br)c1` [1-(4-Chlorophenyl)-1H-pyrazolo[3,4-c]pyridine-4-carboxylic acid [(S)-1-(5-bromopyridin-3-yl)-propyl]-amide], the IC50 stood at 0.6 nM.
On to `CN(C)S(=O)(=O)N(C)c1ccc(CNC(=O)c2cncc3c2cnn3-c2ccc(F)cc2)cn1` [1-(4-Fluorophenyl)-1H-pyrazolo[3,4-c]pyridine-4-carboxylic acid [6-(dimethylamino-sulfonylmethylamino)-pyridin-3-ylmethyl]-amide], for which the IC50 was 1 nM.
Take `CCCC(NC(=O)c1cncc2c1cnn2-c1ccc(F)cc1)c1cncc(S(C)(=O)=O)c1` (centres unmarked) [1-(4-Fluorophenyl)-1H-pyrazolo[3,4-c]pyridine-4-carboxylic acid [1-(5-methanesulfonyl-pyridin-3-yl)-butyl]-amide]: the IC50 is 0.6 nM.
As to `CNS(=O)(=O)c1ccc(CNC(=O)c2cncc3c2cnn3-c2ccc(F)cc2)cc1F` [1-(4-Fluorophenyl)-1H-pyrazolo[3,4-c]pyridine-4-carboxylic acid 3-fluoro-4-methylsulfamoyl-benzylamide], the IC50 was found to be 1 nM.
As to `O=C(NCc1ccc(CS(=O)(=O)NC2CCCCC2)cc1)c1cncc2c1cnn2-c1ccc(F)cc1` [1-(4-Fluorophenyl)-1H-pyrazolo[3,4-c]pyridine-4-carboxylic acid 4-cyclohexylsulfamoylmethyl-benzylamide], the IC50 was 11 nM.
For the molecule `CCCC(NC(=O)c1cncc2c1cnn2-c1ccc(F)cc1)c1cncc(S(=O)(=O)CCC(=O)OC)c1` (centres unmarked) [3-[5-(1-{[1-(4-Fluorophenyl)-1H-pyrazolo[3,4-c]pyridine-4-carbonyl]-amino}-butyl)-pyridine-3-sulfonyl]-propionic acid methyl ester], the IC50 is 3 nM.
On to `CN1CCC(N(C)S(=O)(=O)c2ccc(CNC(=O)c3cncc4c3cnn4-c3ccc(F)cc3)cc2)CC1` [1-(4-Fluorophenyl)-1H-pyrazolo[3,4-c]pyridine-4-carboxylic acid 4-[methyl-(1-methyl-piperidin-4-yl)-sulfamoyl]-benzylamide], for which the IC50 was 5 nM.
To `NS(=O)(=O)c1cc(CNC(=O)c2cncc3c2cnn3-c2ccc(F)cc2)ccn1` [1-(4-Fluorophenyl)-1H-pyrazolo[3,4-c]pyridine-4-carboxylic acid (2-sulfamoyl-pyridin-4-ylmethyl)-amide] belongs 13 nM.
`C[C@H](NC(=O)c1cncc2c1cnn2-c1ccc(F)cc1)c1cccc(Br)n1` [1-(4-Fluorophenyl)-1H-pyrazolo[3,4-c]pyridine-4-carboxylic acid [(S)-1-(6-bromopyridin-2-yl)-ethyl]-amide]: the IC50 is 5 nM.
On to `CN1CCC(N(C)S(=O)(=O)Cc2ccc(CNC(=O)c3cncc4c3cnn4-c3ccc(F)cc3)cc2)CC1` [1-(4-Fluorophenyl)-1H-pyrazolo[3,4-c]pyridine-4-carboxylic acid 4-{[methyl-(1-methyl-piperidin-4-yl)-sulfamoyl]-methyl}-benzylamide], for which the IC50 worked out at 33 nM.
For `O=C(NCc1ccnc(Br)c1)c1cncc2c1cnn2-c1ccc(F)cc1` [1-(4-Fluorophenyl)-1H-pyrazolo[3,4-c]pyridine-4-carboxylic acid (2-bromopyridin-4-ylmethyl)-amide] the value was 2 nM; for `C[C@H](NC(=O)c1cncc2c1cnn2-c1ccc(Cl)cc1)c1cncc(S(C)(=O)=O)c1` [1-(4-Chlorophenyl)-1H-pyrazolo[3,4-c]pyridine-4-carboxylic acid [(S)-1-(5-methanesulfonyl-pyridin-3-yl)-ethyl]-amide], 4 nM; for `CCCC(NC(=O)c1cncc2c1cnn2-c1ccc(Cl)cc1)c1ccnc(S(C)(=O)=O)c1` (centres unmarked) [1-(4-Chlorophenyl)-1H-pyrazolo[3,4-c]pyridine-4-carboxylic acid [1-(2-methanesulfonyl-pyridin-4-yl)-butyl]-amide], 0.4 nM.
On to `CC(C)NS(=O)(=O)Cc1ccc(CNC(=O)c2cncc3c2cnn3-c2ccc(F)cc2)cc1` [1-(4-Fluorophenyl)-1H-pyrazolo[3,4-c]pyridine-4-carboxylic acid 4-(isopropylsulfamoyl-methyl)-benzylamide], for which the IC50 stood at 3 nM.
For the molecule `CC(NC(=O)c1cncc2c1cnn2-c1ccc(F)cc1)c1ccc(Br)nc1` (centres unmarked) [1-(4-Fluorophenyl)-1H-pyrazolo[3,4-c]pyridine-4-carboxylic acid [1-(6-bromopyridin-3-yl)-ethyl]-amide], the IC50 amounted to 30 nM.
For `CS(=O)(=O)c1cccc(CNC(=O)c2cncc3c2cnn3-c2ccc(F)cc2)n1` [1-(4-Fluorophenyl)-1H-pyrazolo[3,4-c]pyridine-4-carboxylic acid (6-methanesulfonyl-pyridin-2-ylmethyl)-amide], the IC50 came to 39 nM.
For `COC1CCN(S(=O)(=O)c2ccc(CNC(=O)c3cncc4c3cnn4-c3ccc(F)cc3)cc2)CC1` [1-(4-Fluorophenyl)-1H-pyrazolo[3,4-c]pyridine-4-carboxylic acid 4-(4-methoxy-piperidine-1-sulfonyl)-benzylamide], the IC50 was found to be 0.7 nM.
For `O=C(NCc1ccc(S(=O)(=O)N2CCOCC2)nc1)c1cncc2c1cnn2-c1ccc(Cl)cc1` [1-(4-Chlorophenyl)-1H-pyrazolo[3,4-c]pyridine-4-carboxylic acid [6-(morpholine-4-sulfonyl)-pyridin-3-ylmethyl]-amide] the value was 3 nM.
As for `CC[C@H](NC(=O)c1cncc2c1cnn2-c1ccc(F)cc1)c1cncc(Br)c1` [1-(4-Fluorophenyl)-1H-pyrazolo[3,4-c]pyridine-4-carboxylic acid [(S)-1-(5-bromopyridin-3-yl)-propyl]-amide], the half-inhibitory concentration (IC50) came to 0.2 nM.
As for `C=CC[C@H](NC(=O)c1cncc2c1cnn2-c1ccc(F)cc1)c1ccnc(Br)c1` [1-(4-Fluorophenyl)-1H-pyrazolo[3,4-c]pyridine-4-carboxylic acid [(S)-1-(2-bromopyridin-4-yl)-but-3-enyl]-amide], the IC50 worked out at 0.3 nM.
To `COCCN(c1ccc(CNC(=O)c2cncc3c2cnn3-c2ccc(Cl)cc2)cn1)S(C)(=O)=O` [1-(4-Chlorophenyl)-1H-pyrazolo[3,4-c]pyridine-4-carboxylic acid {6-[methanesulfonyl-(2-methoxy-ethyl)-amino]-pyridin-3-ylmethyl}-amide] belongs 5 nM; to `CC(CO)NS(=O)(=O)c1ccc(CNC(=O)c2cncc3c2cnn3-c2ccc(F)cc2)cc1` (centres unmarked) [1-(4-Fluorophenyl)-1H-pyrazolo[3,4-c]pyridine-4-carboxylic acid 4-(2-hydroxy-1-methyl-ethylsulfamoyl)-benzylamide], 2 nM; to `CC(O)CNS(=O)(=O)c1ccc(CNC(=O)c2cncc3c2cnn3-c2ccc(F)cc2)cc1` (centres unmarked) [1-(4-Fluorophenyl)-1H-pyrazolo[3,4-c]pyridine-4-carboxylic acid 4-(2-hydroxy-propylsulfamoyl)-benzylamide], 2 nM.
Turning to `CS(=O)(=O)Nc1ccc(CNC(=O)c2cncc3c2cnn3-c2ccc(F)cc2)cc1` [1-(4-Fluorophenyl)-1H-pyrazolo[3,4-c]pyridine-4-carboxylic acid 4-methanesulfonylamino-benzylamide], the IC50 amounted to 7 nM.
With `CN1CCN(S(=O)(=O)c2ccc(CNC(=O)c3cncc4c3cnn4-c3ccc(F)cc3)cc2)CC1` [1-(4-Fluorophenyl)-1H-pyrazolo[3,4-c]pyridine-4-carboxylic acid 4-(4-methyl-piperazine-1-sulfonyl)-benzylamide], the IC50 worked out at 1 nM.
To `CCC[C@H](NC(=O)c1cncc2c1cnn2-c1ccc(F)cc1)c1cncc(S(=O)(=O)NC)c1` [1-(4-Fluorophenyl)-1H-pyrazolo[3,4-c]pyridine-4-carboxylic acid [(S)-1-(5-methylsulfamoyl-pyridin-3-yl)-butyl]-amide] belongs 0.2 nM.
